Patent US20240300900A1, “HYDROPHILIC AZADIBENZOCYCLOOCTYNE DERIVATIVES AND METAL-FREE CLICK REACTIONS WITH THESE HYDROPHILIC AZADIBENZOCYCLOOCTYNE DERIVATIVES” (Roche Diagnostics Operations, Inc., priority 2021, published 2024)

Assays:
[1] = Hydrophobicity indicated by reverse phase HPLC (YMC-Triart C18); type: physicochemical; conditions: YMC-Triart C18, 0-100% MeCN in H2O, 0.1% TFA in 25 min; later retention = more hydrophobic
Description: The other way round, an earlier retention corresponded to higher hydrophilie.

[2] = Solubility experiments: successive mixing with water, visual inspection; type: physicochemical; conditions: sonicated 10 s
Description: If solid compound was still visible, this was considered as not dissolved. If no solid compound was visible, this was considered as dissolved.

[3] = theoretical concentration 0.6 mM
[4] = theoretical concentration 6.0 mM
[5] = theoretical concentration 12.4 mM
[6] = theoretical concentration 16.5 mM
[7] = theoretical concentration 515 mM

| Retention Time [1] | dissolved in water (visual inspection) [2, 3] | dissolved in water (visual inspection) [2, 4] | dissolved in water (visual inspection) [2, 5] | dissolved in water (visual inspection) [2, 6] | dissolved in water (visual inspection) [2, 7] | SMILES |
| --- | --- | --- | --- | --- | --- | --- |
| 11.58 min | – | – | – | – | – | O=C(O)CCCNC(=O)CCCC(=O)N1Cc2cc(OC[C@@H](O)CO)ccc2C#Cc2ccc(OC[C@@H](O)CO)cc21 [Compound 7] |
| – | yes | yes | yes | no | no | O=C(CCCC(=O)N1Cc2cc(OC[C@@H](O)CO)ccc2C#Cc2ccc(OC[C@@H](O)CO)cc21)NCCCC(=O)ON1C(=O)CCC1=O [Compound 8] |
| 15.18 min | no | no | no | no | no | O=C(O)CCCCC(=O)N1Cc2ccccc2C#Cc2ccccc21 [Compound 31] |
| – | no | no | no | no | no | O=C(CCC(=O)N1Cc2ccccc2C#Cc2ccccc21)ON1C(=O)CCC1=O [Compound 32] |
